According to PubChem BioAssay (NCI):
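Tested at 5 concentrations; 48 h exposure; 96-well plates; endpoints linearly interpolated, else capped at highest concentration. GI50 = concentration required for 50% inhibition of growth. The concentration for full growth arrest is given as TGI.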

Columns and labels:
Test in all cases: DTP human tumour cell line panel, 48 h
786-0 renal = test system: 786-0 renal
A498 renal = test system: A498 renal
A549 NSCLC = test system: A549 NSCLC
ACHN renal = test system: ACHN renal
BT-549 breast = test system: BT-549 breast
CAKI-1 renal = test system: CAKI-1 renal
CCRF-CEM leukemia = test system: CCRF-CEM leukemia
COLO 205 colon = test system: COLO 205 colon
DU-145 prostate = test system: DU-145 prostate
EKVX NSCLC = test system: EKVX NSCLC
HCC-2998 colon = test system: HCC-2998 colon
HCT-116 colon = test system: HCT-116 colon
HCT-15 colon = test system: HCT-15 colon
HL-60(TB) leukemia = test system: HL-60(TB) leukemia
HOP-62 NSCLC = test system: HOP-62 NSCLC
HOP-92 NSCLC = test system: HOP-92 NSCLC
HS 578T breast = test system: HS 578T breast
HT29 colon = test system: HT29 colon
IGROV1 ovarian = test system: IGROV1 ovarian
K-562 leukemia = test system: K-562 leukemia
KM12 colon = test system: KM12 colon
LOX IMVI melanoma = test system: LOX IMVI melanoma
M14 melanoma = test system: M14 melanoma
MALME-3M melanoma = test system: MALME-3M melanoma
MCF7 breast = test system: MCF7 breast
MDA-MB-231 breast = test system: MDA-MB-231 breast
MDA-MB-435 = test system: MDA-MB-435
MOLT-4 leukemia = test system: MOLT-4 leukemia
NCI-H226 lung = test system: NCI-H226 lung
NCI-H23 lung = test system: NCI-H23 lung
NCI-H460 lung = test system: NCI-H460 lung
NCI-H522 lung = test system: NCI-H522 lung
NCI/ADR-RES ovarian = test system: NCI/ADR-RES ovarian
OVCAR-3 ovarian = test system: OVCAR-3 ovarian
OVCAR-4 ovarian = test system: OVCAR-4 ovarian
OVCAR-5 ovarian = test system: OVCAR-5 ovarian
OVCAR-8 ovarian = test system: OVCAR-8 ovarian
RPMI-8226 leukemia = test system: RPMI-8226 leukemia
RXF 393 renal = test system: RXF 393 renal
SF-268 CNS = test system: SF-268 CNS
SF-295 CNS = test system: SF-295 CNS
SF-539 CNS = test system: SF-539 CNS
SK-MEL-2 melanoma = test system: SK-MEL-2 melanoma
SK-MEL-28 melanoma = test system: SK-MEL-28 melanoma
SK-MEL-5 melanoma = test system: SK-MEL-5 melanoma
SK-OV-3 ovarian = test system: SK-OV-3 ovarian
SN12C renal = test system: SN12C renal
SNB-19 CNS = test system: SNB-19 CNS
SNB-75 CNS = test system: SNB-75 CNS
SW-620 colon = test system: SW-620 colon
T-47D breast = test system: T-47D breast
TK-10 renal = test system: TK-10 renal
U251 CNS = test system: U251 CNS
UACC-257 melanoma = test system: UACC-257 melanoma
UACC-62 melanoma = test system: UACC-62 melanoma
UO-31 renal = test system: UO-31 renal

CCCCCCCCn1ccc2cc(NC(=O)Cn3cc(CN4CCCCCC4)nn3)ccc21
GI50 (786-0 renal): 1680 nM | TGI (786-0 renal): 3070 nM | GI50 (A498 renal): 1760 nM | TGI (A498 renal): 3200 nM | GI50 (A549 NSCLC): 1770 nM | TGI (A549 NSCLC): 3360 nM | GI50 (ACHN renal): 1730 nM | TGI (ACHN renal): 3110 nM | GI50 (BT-549 breast): 1720 nM | TGI (BT-549 breast): 3320 nM | GI50 (CAKI-1 renal): 1490 nM | TGI (CAKI-1 renal): 2890 nM | GI50 (CCRF-CEM leukemia): 2250 nM | TGI (CCRF-CEM leukemia): 7410 nM | GI50 (COLO 205 colon): 1680 nM | TGI (COLO 205 colon): 3250 nM | GI50 (DU-145 prostate): 1970 nM | TGI (DU-145 prostate): 3810 nM | GI50 (EKVX NSCLC): 1680 nM | TGI (EKVX NSCLC): 3430 nM | GI50 (HCC-2998 colon): 1780 nM | TGI (HCC-2998 colon): 3350 nM | GI50 (HCT-116 colon): 1660 nM | TGI (HCT-116 colon): 3100 nM | GI50 (HCT-15 colon): 1600 nM | TGI (HCT-15 colon): 3170 nM | GI50 (HL-60(TB) leukemia): 1870 nM | TGI (HL-60(TB) leukemia): 3750 nM | GI50 (HOP-62 NSCLC): 1640 nM | TGI (HOP-62 NSCLC): 3140 nM | GI50 (HOP-92 NSCLC): 1260 nM | TGI (HOP-92 NSCLC): 2610 nM | GI50 (HS 578T breast): 1910 nM | TGI (HS 578T breast): 4160 nM | GI50 (HT29 colon): 1730 nM | TGI (HT29 colon): 3460 nM | GI50 (IGROV1 ovarian): 1720 nM | TGI (IGROV1 ovarian): 3330 nM | GI50 (K-562 leukemia): 1670 nM | TGI (K-562 leukemia): 3600 nM | GI50 (KM12 colon): 1730 nM | TGI (KM12 colon): 3270 nM | GI50 (LOX IMVI melanoma): 1700 nM | TGI (LOX IMVI melanoma): 3170 nM | GI50 (M14 melanoma): 1670 nM | TGI (M14 melanoma): 3230 nM | GI50 (MALME-3M melanoma): 1670 nM | TGI (MALME-3M melanoma): 3200 nM | GI50 (MCF7 breast): 1830 nM | TGI (MCF7 breast): 3630 nM | GI50 (MDA-MB-231 breast): 1740 nM | TGI (MDA-MB-231 breast): 3470 nM | GI50 (MDA-MB-435): 1690 nM | TGI (MDA-MB-435): 3180 nM | GI50 (MOLT-4 leukemia): 2050 nM | TGI (MOLT-4 leukemia): 5080 nM | GI50 (NCI-H226 lung): 2230 nM | TGI (NCI-H226 lung): 5070 nM | GI50 (NCI-H23 lung): 1760 nM | TGI (NCI-H23 lung): 3770 nM | GI50 (NCI-H460 lung): 1850 nM | TGI (NCI-H460 lung): 3450 nM | GI50 (NCI-H522 lung): 1850 nM | TGI (NCI-H522 lung): 3590 nM | GI50 (NCI/ADR-RES ovarian): 1790 nM | TGI (NCI/ADR-RES ovarian): 3560 nM | GI50 (OVCAR-3 ovarian): 1730 nM | TGI (OVCAR-3 ovarian): 3240 nM | GI50 (OVCAR-4 ovarian): 1590 nM | TGI (OVCAR-4 ovarian): 3130 nM | GI50 (OVCAR-5 ovarian): 1820 nM | TGI (OVCAR-5 ovarian): 3860 nM | GI50 (OVCAR-8 ovarian): 1870 nM | TGI (OVCAR-8 ovarian): 3730 nM | GI50 (RPMI-8226 leukemia): 1940 nM | TGI (RPMI-8226 leukemia): 4310 nM | GI50 (RXF 393 renal): 1660 nM | TGI (RXF 393 renal): 3240 nM | GI50 (SF-268 CNS): 1800 nM | TGI (SF-268 CNS): 3370 nM | GI50 (SF-295 CNS): 1740 nM | TGI (SF-295 CNS): 3330 nM | GI50 (SF-539 CNS): 1760 nM | TGI (SF-539 CNS): 3210 nM | GI50 (SK-MEL-2 melanoma): 1930 nM | TGI (SK-MEL-2 melanoma): 3600 nM | GI50 (SK-MEL-28 melanoma): 1820 nM | TGI (SK-MEL-28 melanoma): 3300 nM | GI50 (SK-MEL-5 melanoma): 1740 nM | TGI (SK-MEL-5 melanoma): 3130 nM | GI50 (SK-OV-3 ovarian): 1750 nM | TGI (SK-OV-3 ovarian): 3330 nM | GI50 (SN12C renal): 1670 nM | TGI (SN12C renal): 3260 nM | GI50 (SNB-19 CNS): 1800 nM | TGI (SNB-19 CNS): 3460 nM | GI50 (SNB-75 CNS): 1550 nM | TGI (SNB-75 CNS): 2910 nM | GI50 (SW-620 colon): 1730 nM | TGI (SW-620 colon): 3330 nM | GI50 (T-47D breast): 1660 nM | TGI (T-47D breast): 3780 nM | GI50 (TK-10 renal): 1630 nM | TGI (TK-10 renal): 3060 nM | GI50 (U251 CNS): 1830 nM | TGI (U251 CNS): 3290 nM | GI50 (UACC-257 melanoma): 1910 nM | TGI (UACC-257 melanoma): 3580 nM | GI50 (UACC-62 melanoma): 1930 nM | TGI (UACC-62 melanoma): 3450 nM | GI50 (UO-31 renal): 1480 nM | TGI (UO-31 renal): 2810 nM
